{
  "source": "patent US20110319360A1",
  "about": "“Method of including apoptosis/Cell death in leukemia cell using a purine nucleoside analogue” (U.S. Department of Veterans Affairs, priority 2010, published 2011)",
  "key": {"normal PBMCs": {"tested_on": "normal PBMCs", "test": "MTS cytotoxicity assay on PBMCs from normal donors", "format": "cell-based, human", "conditions": "for EC50: Homo sapiens, PBMC", "description": "For toxicity studies involving normal blood cells, normal volunteers were enrolled in an IRB-approved protocol for blood collection. PBMCs were isolated from heparin-anticoagulated blood by ficoll-Hypaque density gradient centrifugation.\n2.5×10^5 CLL cells were incubated in triplicate or quadruplicate in a 96-well tissue culture plate (Costar, Corning, N.Y.) with serial dilutions of LMP-420, fludarabine, and/or recombinant TNF-alpha (R&D Systems, Minneapolis, Minn.) in Hybridoma serum free media (SFM) (GIBCO/Invitrogen, Carlsbad, Calif.) containing 10% heat-inactivated fetal bovine serum (FBS) (Sigma) at 37° C. with 5% CO2. After 72 hours, 20 μl CellTiter 96® AQueous One Solution Cell Proliferation Assay (Promega, Madison, Wis.) MTS (3-(4,5 dimethylthiazol-2-yl)-5-(3-carboxymethoxyphenyl-2-(4-sulfophenyl)-2H-tetrazolium) reagent was added to each well and the absorbance was read at 490 nm on a Thermomax microplate reader (Molecular Devices, Sunnyvale, Calif.). We calculated fractional cytotoxicity as performed previously (Reference 12), comparing absorbance at 490 nm from treated cells to control cells incubated with media alone.\nThe concentration effective at killing 50% of CLL cells compared to media alone (ED50) was calculated when 50% fractional cytotoxicity occurred within the range of serial dilutions tested (Reference 12). If the ED50 fell below or above this range, it was set to either the lowest or the highest concentration tested, respectively, for the purposes of statistical analyses and graphical representation."}, "CD19-positive B-cell": {"tested_on": "CD19-positive B-cell", "test": "Annexin V apoptosis of normal B-lymphocytes in PBMCs", "format": "cell-based, human", "conditions": "72 hours", "description": "PBMCs were cultured at 10^6 cells/ml in a 12-well tissue culture plate. Cells were treated for 72 hours with vehicle control or drug for 72 hours, then harvested as above for staining. PBMCs were resuspended at 2×10^5 cells/tube in 100 μl buffer (HBSS, 0.5% bovine serum albumin, 0.1% sodium azide) and incubated for 30 min with CD3-FITC or CD19-FITC antibodies according to the manufacturer's protocol (BD Biosciences). Cells were then incubated with PE-annexin V and 7-AAD (BD Biosciences) in annexin V binding buffer (BD Biosciences) for 15 minutes prior to analysis of apoptosis on the Guava EasyCyte™ Plus system."}, "CLL cells": {"tested_on": "CLL cells", "test": "Annexin V / 7-AAD apoptosis assay on CLL cells", "format": "cell-based, human", "conditions": "for median percent drug-specific apoptosis: 72-hour; for median drug-specific apoptosis: n=43", "description": "Cells were cultured in either of two different media: Hybridoma SFM with 10% FBS or RPMI 1640 medium (Sigma) supplemented with 5% heat-inactivated human AB serum (Sigma), 50 units/ml penicillin, 50 μg/ml streptomycin, 2 mM L-glutamine, 25 mM HEPES (N2-hydroxyethylpiperazine-N′-2-ethanesulfonic acid), 100 μM MEM non-essential amino acids, and 1 mM sodium pyruvate (GIBCO). CLL cell sensitivity to LMP-420 was not affected by culture media, as determined by direct comparison of the apoptotic effects observed in both media for seven samples. After drug activity in the presence of human AB serum was confirmed, further studies were performed in Hybridoma SFM with 10% FBS.\nCLL cells were cultured at 2×10^6 cells/ml in a volume of 100 μl/well in a U-bottom 96-well tissue culture plate (BD Biosciences, San Jose, Calif.) with either vehicle control or with drug. After 24, 48, or 72 hours of incubation, cells were analyzed for apoptosis by three different methods. For the annexin-based assay, 100 μl of Guava Nexin Reagent (Millipore, Billerica, Mass.) was added for 20 min. Cells were analyzed for annexin V-PE and 7-AAD staining with flow cytometric analysis by the Guava EasyCyte™ Plus system (Millipore). To facilitate comparison of samples with different levels of spontaneous apoptosis, drug-specific apoptosis is reported. Drug-specific apoptosis excludes background spontaneous apoptosis and was calculated as follows: 100%×(drug-induced apoptosis−spontaneous apoptosis)/(100−spontaneous apoptosis) (Reference 13)."}, "human hERG": {"biological_target": "T1, human hERG (Homo sapiens, UniProt Q12809)", "T1 construct": "host or cells: HEK-293", "T1 sequence (Q12809 whole entry)": "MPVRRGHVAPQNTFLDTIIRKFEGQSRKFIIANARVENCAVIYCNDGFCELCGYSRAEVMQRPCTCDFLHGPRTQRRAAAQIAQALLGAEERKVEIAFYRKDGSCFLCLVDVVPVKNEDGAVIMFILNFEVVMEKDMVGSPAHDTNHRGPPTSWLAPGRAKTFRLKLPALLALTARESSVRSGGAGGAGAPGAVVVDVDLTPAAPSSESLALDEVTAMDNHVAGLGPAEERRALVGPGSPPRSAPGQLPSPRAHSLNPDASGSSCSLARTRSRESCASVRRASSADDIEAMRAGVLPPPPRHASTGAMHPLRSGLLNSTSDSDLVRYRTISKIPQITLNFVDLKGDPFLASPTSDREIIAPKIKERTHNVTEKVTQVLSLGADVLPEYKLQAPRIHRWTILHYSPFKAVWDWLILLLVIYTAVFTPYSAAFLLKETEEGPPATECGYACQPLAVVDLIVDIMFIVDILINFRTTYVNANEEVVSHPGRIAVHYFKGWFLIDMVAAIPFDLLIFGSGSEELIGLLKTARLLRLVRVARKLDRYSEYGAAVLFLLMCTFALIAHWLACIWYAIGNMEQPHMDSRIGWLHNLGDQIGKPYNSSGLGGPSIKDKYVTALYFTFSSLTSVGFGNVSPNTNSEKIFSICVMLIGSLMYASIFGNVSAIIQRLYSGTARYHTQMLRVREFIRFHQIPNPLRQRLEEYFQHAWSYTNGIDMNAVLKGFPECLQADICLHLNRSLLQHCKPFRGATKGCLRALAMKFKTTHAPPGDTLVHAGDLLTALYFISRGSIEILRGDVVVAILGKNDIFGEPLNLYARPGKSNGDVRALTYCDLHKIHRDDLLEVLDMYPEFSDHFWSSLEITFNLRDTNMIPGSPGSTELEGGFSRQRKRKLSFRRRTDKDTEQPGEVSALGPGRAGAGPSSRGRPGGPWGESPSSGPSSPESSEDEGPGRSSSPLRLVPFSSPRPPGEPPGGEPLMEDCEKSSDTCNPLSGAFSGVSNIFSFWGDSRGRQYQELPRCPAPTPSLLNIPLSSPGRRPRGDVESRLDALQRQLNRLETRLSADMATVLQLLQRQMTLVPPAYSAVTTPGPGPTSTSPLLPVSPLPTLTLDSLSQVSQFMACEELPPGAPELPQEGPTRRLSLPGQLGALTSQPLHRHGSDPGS", "test": "hERG [3H] Astemizole radioligand binding", "conditions": "1.5 nM [3H] Astemizole, HEK-293 cells, 60 min, 25° C.; read-out: IC50 for inhibition of radioligand binding to the cardiac potassium channel", "description": "This assay was performed by MDS Pharma Services. Human recombinant HEK-293 cells over-expressing the human hERG receptor were incubated for 60 min at 25° C. with 1.5 nM [^3H] Astemizole in the presence or absence of the indicated concentrations of LMP-420. Nonspecific binding (<10%) was determined by binding of radioligand in 10 μM Astemizole. All samples were determined in duplicate."}, "[1]": {"conditions": "Reference 44; cited from earlier work"}, "[2]": {"tested_on": "CD34+ hematopoietic progenitor cells (myeloid colonies)", "test": "Colony formation assay, myeloid colonies", "format": "cell-based, human", "description": "CD34^+ hematopoietic progenitor cells were isolated from PBMCs from two healthy donors using the CD34 Microbead Kit (Miltenyi Biotec, Auburn, Calif.). 10^3 CD34^+-enriched cells were cultured in a 35 mm culture plate (1000 cells/plate) with or without LMP-420 or fludarabine in 1.1 ml Human Methylcellulose Complete Media (R&D Systems) according to the manufacturer's protocol. Plates were incubated for 14 days at 37° C. in humidified 5% CO2. Each treatment group was tested in triplicate. Colonies on plates were scored by two independent observers, blinded to the treatment groups, by microscopic evaluation under 10× and 20× power. Colonies were categorized as being of either erythroid or myeloid lineage."}},
  "note": "Several values for one entry are separate records, joined by “and”; a condition that tells them apart may be missing. Equal entries are not always repeated. Where two headings read alike, the source gives them in different places.",
  "data": [
    {"smiles": "Nc1nc(Cl)c2ncn(CCCCCB(O)O)c2n1", "note": "[LMP-420, 2-amino-6-chloro-9-[5(dihydroxyboryl)-pentyl] purine]", "values": [
      {"measurement": "potentiation of fludarabine cytotoxicity on normal PBMCs", "setting": "normal PBMCs; 62 or 250 nM LMP-420 with fludarabine, 72 hours, n=3", "result": "did not potentiate"},
      {"measurement": "EC50", "setting": "normal PBMCs; 72 hours, MTS, not reached at up to 512 μM, read-out: median ED50 on normal PBMCs", "result": "> 512", "unit": "µM"},
      {"measurement": "EC50", "setting": "normal PBMCs; mean, PBMCs from healthy blood donors (n = 3-6), read-out: ED50 (μM), PBMC", "result": "> 512", "unit": "µM"},
      {"measurement": "average percent drug-specific apoptosis, B-cells", "setting": "CD19-positive B-cell; 1 μM, n=3", "result": 11, "unit": "%"},
      {"measurement": "apoptosis in normal B-lymphocytes", "setting": "CD19-positive B-cell; concentrations up to 90 μM", "result": "did not induce significant apoptosis"},
      {"measurement": "median percent drug-specific apoptosis", "setting": "CLL cells; 5,000 nM, mutated IgVH subgroup (n=30)", "result": 34, "unit": "%"},
      {"measurement": "median percent drug-specific apoptosis", "setting": "CLL cells; 5,000 nM, unmutated IgVH subgroup (n=10)", "result": 59, "unit": "%"},
      {"measurement": "median drug-specific apoptosis", "setting": "CLL cells; 5,000 nM, 24 hours", "result": 15, "unit": "%"},
      {"measurement": "median drug-specific apoptosis", "setting": "CLL cells; 5,000 nM, 48 hours", "result": 28, "unit": "%"},
      {"measurement": "median drug-specific apoptosis", "setting": "CLL cells; 5,000 nM, 72 hours", "result": 32, "unit": "%"},
      {"measurement": "apoptosis, range", "setting": "CLL cells; 5,000 nM, patients with 11q22 deletion or complex cytogenetics (n=3)", "result": "13 to 58% and 13-58%"},
      {"measurement": "EC50", "setting": "CLL cells; Homo sapiens, CLL cell, 72 hours, five-patient sample set, read-out: mean dose required for 50% drug-specific apoptosis by annexin V staining", "result": 5, "unit": "µM"},
      {"measurement": "staining indicative of primary necrosis (7-AAD-positive, annexin-V-negative)", "setting": "CLL cells; all samples, 72 hours", "result": "< 2", "unit": "%"},
      {"measurement": "samples in which apoptosis was induced (49 of 50)", "setting": "CLL cells; highest dose (5,000 nM), 72 hours", "result": 98, "unit": "%"},
      {"measurement": "IC50", "setting": "human hERG", "result": "> 100", "unit": "µM"},
      {"measurement": "oral bioavailability", "setting": "[1]", "result": "orally bioavailable"},
      {"measurement": "tolerability in vivo", "setting": "[1]", "result": "well-tolerated in vivo"},
      {"measurement": "myeloid colony IC50 relative to CLL ED50", "setting": "[2]", "result": "greater than 40 fold"},
      {"measurement": "IC50", "setting": "[2]; Homo sapiens, 336 h, 14 days, healthy donors (n=2), read-out: mean IC50 for normal myeloid colony formation", "result": 25, "unit": "µM"}
    ]}
  ]
}
